Measurements from patent US7829565B2, “Indole derivatives as serotonin reuptake inhibitors” (Merck Patent GmbH, priority 2003, dated 2010).

Key:
serotonin reuptake = target: T1, serotonin reuptake (Rattus norvegicus, UniProt P31652); assay: serotonin reuptake inhibition (SSRI); format: biochemical
T1 construct: synaptosomal serotonin reuptake (Sherman et al., Life Sci. 23 (1978), 1863-1870); from tissue
Excerpt: (§1) In particular, they inhibit 5-HT reuptake. […] Due to a 5-HT-agonistic action and 5-HT reuptake inhibition, serotonin remains in the synaptic cleft for longer and the serotonin action is reinforced. Active ingredients having such properties are therefore particularly suitable as antidepressants and anxiolytics. The compounds of the formula I inhibit the binding of tritiated serotonin ligands to hippocampal receptors (Cossery et al., European J. Pharmacol. 140 (1987), 143-155) and synaptosomal serotonin reuptake (Sherman et al., Life Sci. 23 (1978), 1863-1870).
For in-vitro determination of 5-HT reuptake inhibition, synaptosomal reuptake inhibition (Wong et al., Neuropsycho-pharmacology 8 (1993), 22-33) and p-chloroamphetamine antagonism (Fuller et al. J. Pharmacol. Exp. Ther. 212 (1980), 115-119) is measured. Serotonin reuptake inhibition can in addition also be investigated with the aid of the Waldmeier method ex vivo in the brain tissue of mice (European J. Pharmacol. 1977, 46, 387-92), and by microdialysis, which is described by DiChiara (Trends in Pharmacol. Sci., 11 (1990), 116-121). To this end, a physiological solution is perfused through a microdialysis container implanted into a rat brain. During this perfusion, the solution takes up the neurotransmitters liberated in the brain and is subsequently analysed. […]

5-HT1A receptors = target: T2, 5-HT1A receptors (Rattus norvegicus, UniProt P19327); assay: 5-HT1A receptor binding test
T2 construct: from tissue; host or cells: hippocampus (membranes)
T2 sequence (P19327 1-422): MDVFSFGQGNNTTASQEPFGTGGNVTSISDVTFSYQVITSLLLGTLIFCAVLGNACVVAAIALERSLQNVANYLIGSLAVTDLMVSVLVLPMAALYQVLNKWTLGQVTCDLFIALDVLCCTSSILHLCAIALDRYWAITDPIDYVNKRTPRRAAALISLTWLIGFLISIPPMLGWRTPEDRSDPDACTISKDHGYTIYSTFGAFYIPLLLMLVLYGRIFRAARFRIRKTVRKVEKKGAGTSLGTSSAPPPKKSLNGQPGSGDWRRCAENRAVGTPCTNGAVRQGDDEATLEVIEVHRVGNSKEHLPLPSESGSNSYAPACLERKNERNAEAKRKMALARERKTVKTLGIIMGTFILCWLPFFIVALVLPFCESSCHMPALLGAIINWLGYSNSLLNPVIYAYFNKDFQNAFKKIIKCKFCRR
Excerpt: as §1
The 5-HT1A-agonistic action can be measured in vitro, for example, with the aid of the (serotonin) binding test, as described by Matzen et al. (J. Med. Chem., 43 (2000), 1149-57), in particular on page 1156 with reference to Eur. J. Pharmacol., 140 (1987), 143-155. In addition, the 5-HT1A-agonistic action can be measured with the aid of the GTPgammaS test described by Newman-Tancredi et al. (Eur. J. Pharmacol. 307 (1996), 107-11).
Many of the compounds synthesised have nanomolar affinity to the 5-HT1A receptors and nanomolar reuptake inhibition of serotonin. • 5-{4-[4-(5-Cyano-2-oxo-2,3-dihydro-1H-indol-3-yl)butyl]piperazin-1-yl}-benzofuran-2-carboxamide

T1 sequence (P31652 whole entry): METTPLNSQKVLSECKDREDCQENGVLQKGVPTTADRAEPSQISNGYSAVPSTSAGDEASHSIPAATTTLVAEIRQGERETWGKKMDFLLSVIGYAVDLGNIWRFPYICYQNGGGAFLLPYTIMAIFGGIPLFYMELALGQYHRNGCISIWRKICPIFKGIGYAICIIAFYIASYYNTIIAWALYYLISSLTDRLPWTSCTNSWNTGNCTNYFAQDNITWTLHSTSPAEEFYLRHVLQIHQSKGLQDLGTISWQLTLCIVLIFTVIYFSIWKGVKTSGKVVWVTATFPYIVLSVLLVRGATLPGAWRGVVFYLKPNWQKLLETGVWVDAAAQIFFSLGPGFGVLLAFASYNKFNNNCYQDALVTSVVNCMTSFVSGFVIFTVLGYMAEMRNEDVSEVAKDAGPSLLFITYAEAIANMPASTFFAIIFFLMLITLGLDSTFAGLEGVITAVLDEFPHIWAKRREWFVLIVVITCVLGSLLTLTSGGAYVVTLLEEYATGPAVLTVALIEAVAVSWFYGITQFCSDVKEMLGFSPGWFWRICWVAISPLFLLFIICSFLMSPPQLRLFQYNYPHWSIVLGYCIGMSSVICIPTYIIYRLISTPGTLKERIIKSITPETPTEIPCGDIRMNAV

SMILES | IC50 (serotonin reuptake) [nM] | IC50 (5-HT1A receptors) [nM]
N#Cc1ccc2c(c1)C(CCCCN1CCN(c3ccc4oc(C(N)=O)cc4c3)CC1)C(=O)N2 (stereo not shown) [5-{4-[4-(5-cyano-2-oxo-2,3-dihydro-1H-indol-3-yl)butyl]-piperazin-1-yl}benzofuran-2-carboxamide] | 2.9 | 1.7
N#Cc1cc2c(CCCCN3CCN(c4ccc5oc(C(N)=O)cc5c4)CC3)c[nH]c2cc1O [5-{4-[4-(5-cyano-6-hydroxy-1H-indol-3-yl)butyl]piperazin-1-yl}-benzofuran-2-carboxamide] | 2.7 | 18
